Results published in paper PMC7614687, “Modulation of the substrate specificity of the kinase PDK1 by distinct conformations of the full-length protein*” (Science signaling, 2023).

Legend:
GST-PDK1_1-556 = biological target: T1, GST-PDK1_1-556 (Homo sapiens, UniProt O15530); experiment: AlphaScreen GST-PDK1_1-556 / biotin-PIFtide interaction; format: binding
T1 construct: made in house; host or cells: HEK293 cells (transient transfection of pEBG2T); peptide synthesized by Pepscan
T1 sequence (O15530 1-556): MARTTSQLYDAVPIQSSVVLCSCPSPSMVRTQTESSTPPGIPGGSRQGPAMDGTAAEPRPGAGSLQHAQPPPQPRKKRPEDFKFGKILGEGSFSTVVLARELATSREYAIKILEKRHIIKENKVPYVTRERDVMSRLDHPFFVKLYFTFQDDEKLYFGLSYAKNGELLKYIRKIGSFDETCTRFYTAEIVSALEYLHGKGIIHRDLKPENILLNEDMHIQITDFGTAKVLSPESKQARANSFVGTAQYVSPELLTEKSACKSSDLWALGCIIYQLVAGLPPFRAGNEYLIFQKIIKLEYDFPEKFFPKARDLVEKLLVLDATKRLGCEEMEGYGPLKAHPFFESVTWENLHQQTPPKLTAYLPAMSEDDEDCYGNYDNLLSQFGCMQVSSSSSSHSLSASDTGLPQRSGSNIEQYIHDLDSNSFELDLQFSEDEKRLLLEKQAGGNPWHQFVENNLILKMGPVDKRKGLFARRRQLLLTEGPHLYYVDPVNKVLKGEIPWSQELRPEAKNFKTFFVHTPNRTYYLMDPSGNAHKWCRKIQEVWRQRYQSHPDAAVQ
Experimental: The AlphaScreen® assay was performed following the general guidelines from the manufacturer (Perkin Elmer) ([29]). In short, the assay was performed in a final volume of 25 μl in white 384-well microtiter plates (Greiner) in a standard buffer containing 50 mM Tris-HCl (pH 7.4), 100 mM NaCl, 2 mM DTT, 0.01% (v/v) Tween-20 and 0.1% (w/v) BSA, with the addition of 5 μl of beads (anti-GST coated acceptor beads and streptavidin-coated donor beads; nickel chelate-coated acceptor beads and streptavidin-coated donor beads; or nickel chelate-coated acceptor beads and GSH-coated donor beads, 20 μg/ml final concentrations for each bead type). AlphaScreen assays for His-tagged proteins and GST-fusion proteins were performed using nickel chelate-coated acceptor beads and GSH-coated donor beads; alphascreen assays for His-tagged proteins and biotinylated molecules were performed using nickel chelate-coated acceptor beads and streptavidin-coated donor beads; alphascreen assays for GST-fusion proteins and biotinylated molecules were performed using anti-GST coated acceptor beads and streptavidin-coated donor beads (Perkin Elmer).
The interaction between GST-PDK1_1-556 and biotin-PIFtide was performed as described previously ([29], [32]) in the standard buffer, but the bead concentration was lowered to 15 μg/ml.

PDK1_1-556 = biological target: T2, PDK1_1-556 (Homo sapiens, UniProt O15530); experiment: PDK1-mediated activation/phosphorylation of Akt and SGK in vitro (cascade format, Western blot); format: biochemical; details: absence of PIP3, HYG8 1 μM
T2 construct: effect of HYG8 on the thermal stability (ΔTm) of PDK1_1-556 (H) and PDK1_50-359 (I); His (N); made in house; host or cells: Sf9 insect cells (baculovirus)
T2 sequence (O15530 1-556): T1 sequence (O15530 1-556)
Experimental: PDK1 activity was also assessed in a cascade format that measures the ability of PDK1 to activate its substrates GST-ΔN-SGK [S422D], GST-Akt [S473D] and GST-Akt ΔPH [S473D], as previously performed ([24], [28]). SGK and Akt proteins mutated at the HM phosphorylation site to Asp can be activated by phosphorylation at the activation loop by PDK1. In brief, we preincubated SGK or Akt (0.5 μg) with 10 ng or 100 ng of PDK1 at room temperature (22°C) in a buffer containing 50 mM Tris pH 7.5, 0.05 mg/ml BSA, 0.1% β-mercaptoethanol, 10 mM MgCl2, 100 μM ATP (20 μl). We measured the activity of SGK or Akt by adding 30 μl buffer containing the polypeptide substrate KK-Crosstide ([…]; 100 μM) and [γ^32P]ATP (100 μM). […]
PDK1 activity was also measured by incubating PDK1 with protein kinase substrates and measuring their phosphorylation by Western blot using phospho-specific antibodies to the activation loop phosphorylation site, essentially as previously performed ([24]), with the modification that the secondary antibodies were fluorescent for improved quantification. […] The basal phosphorylation of substrates was determined in the absence of PDK1, while “maximal” phosphorylation corresponds to the phosphorylation of substrates with excess PDK1 (10 nM PDK1 for Akt/PKB substrates and 1 nM PDK1 for SGK). […] Fluorescent signals were measured using Odyssey Fc (Licor). […]

EC50 (GST-PDK1_1-556; approximate, read-out: EC50, increase of GST-PDK1_1-556 binding to PIFtide): ~2.4 nM | fold increase of binding of GST-PDK1_1-556 to PIFtide (GST-PDK1_1-556; different experiments): 3-4 fold | activation of Akt and Akt ΔPH by PDK1 (PDK1_1-556): selectively inhibited | activation of SGK by PDK1 (PDK1_1-556): did not inhibit
SMILES: O=C(O[C@H]1[C@@H](OP(=O)(O)O)[C@H](OP(=O)(O)O)[C@@H](OP(=O)(O)O)[C@H](OP(=O)(O)O)[C@H]1OP(=O)(O)O)c1ccccc1 [HYG8, 2-O-benzoyl-IP5]
